Assay results reported in US7902361B2, “Pyrimidin-4-yl-3, 4-thione compounds and their use in therapy” (Cyclacel Limited, priority 2003, dated 2011).
Like-named read-outs stand apart in the source and are kept apart here. Marks after values point to notes of the source that are not given here.

Columns and labels:
glycogen synthase = test: Glycogen synthase activation in HEK293 cells; assay type: cell-based; settings: for Max FI (% to LiCl): maximum fold induction normalised to 40 mM LiCl
Description: HEK293 cells, mouse adipocytes or rat myotubes were treated in 10-cm Petri dishes with different concentrations of GSK3 inhibitor example compounds for 90 minutes. At the end of the treatment period the cells were washed and scraped in ice cold PBS buffer supplemented with 20 mM NaF. The cells were pelleted by centrifugation and lysed in 300 μL buffer (50 mM.HEPES pH 7.5, 10 mM EDTA, 100 mM NaF, 5 mM DTT, protease inhibitor cocktail (Sigma)). After incubation for 30 min on ice the samples were cleared by centrifugation. The activity of glycogen synthase was determined in the soluble fraction at two different concentrations of […]—low (0.1 mM) and high (10 mM). The reaction was carried out for 30 min (buffer: 50 mM Tris pH 7.8, 20 mM EDTA, 25 mM NaF, 5 mM DTT). The reaction mixture (total volume of 90 μL) contained 1% glycogen, 0.3 mM UDP-glucose and 0.06 μCi ^14C-UDP-glucose. Reaction was stopped by transfer of 70 μL to a GFC 96-well filter plate, containing 140 μL 100% ethanol and the glycogen was allowed to precipitate for 1 h at 4° C. The wells were washed 2 times with 200 μL 66% ethanol and than allowed to dry. Subsequently, 100 μL of scintillation liquid was added, and plates were sealed and counted in a Packard Topcounter. Glycogen synthase activation was calculated as the ratio between the incorporation of labelled ^14C-UDP-glucose in glycogen at low and high concentration of […] (fractional velocity).
The ability of GSK3 inhibitors to activate glycogen synthase was determined in HEK293 cells, mouse adipocytes and rat myotubed. The compounds tested activated glycogen synthase in all three cellular systems with EC50 values in the sub-micromolar to low micromolar concentration range. Most of them exceeded the stimulation induced by 40 mM LiCl (the highest compound concentration used in the assay was 20 μM).

[1] = Oral glucose tolerance in male ZDF fa/fa rats; assay type: in vivo, rat; settings: for % Glucose Decrease AUC (−270–180 min) / % Glucose decrease-AUC (0–180 min): ZDF fa/fa rats, oral glucose tolerance, 30 mg/kg per os twice (−270 and −30 min)
Description: (§1) The ability of example compounds of the present invention to improve glucose metabolism was tested in 12-13 week old male ZDF fa/fa rats. The test animals (10-15 mmol/L fasting glucose level) were dosed twice at 30 mg/kg and the glucose challenge was given at time 0. […] Most of these blood levels were below the EC50 values determined in cellular assays.
(§2) 12-13 weeks old male ZDF fa/fa rats were used to study the effect of example compounds on oral glucose tolerance. […] Body weight was recorded three times per week. Test compounds were dissolve in a formulation of 10% DMSO, 5% Tween, 5% Span 20, 30% PEG 400 and 50% water (v/v) to provide final solutions at 5 mg/mL concentration. Each experimental group contained 7 animals. After an 16 h overnight fast the test compounds were administered at 30 mg/kg per os twice (at −270 min and −30 min) before the oral glucose tolerance test was commenced (2 g glucose/kg per os as a 40% solution introduced via feeding tube). A control group was dosed in a similar manner with the vehicle only. Blood sampling for blood glucose measurement (20 μL blood) was performed at −270, 0, 15, 30, 60, 90, 120 and 180 min. Mixed venous blood was collected from the tail vein into 20-μL glass capillaries, which were placed in a standard tube filled with 1 mL solution for hemolysis. Glucose levels were measured using the glucose oxidase procedure (Super G Glukosemessgeraet; Dr Mueller Geraetebau, Freital, Germany). In addition, 50 μL blood samples were taken at 30 and 60 min after the glucose dose, placed in heparinized tubes, which were then frozen immediately in liquid nitrogen. The bioanalytical method used employed isocratic elution liquid chromatography—tandem mass spectrometry in electrospray positive ion multiple reaction monitoring mode.

[2] = Blood levels of test compounds in ZDF fa/fa rats; assay type: in vivo, rat; settings: 30 mg/kg per os twice; for oral bioavailability (blood levels at 30 and 60 min after the glucose load): male ZDF fa/fa rats; for concentration at 30 min / concentration at 60 min: male, rat, whole blood, oral; for concentration at 30 min / concentration at 60 min / Average Blood levels: ZDF fa/fa rats
Description: as §1, §2

PEPCK gene expression = PEPCK gene expression assay - qPCR in HEPG2 cells; assay type: cell-based; settings: Homo sapiens, HepG2, HEPG2, read-out: PEPCK gene expression, % of maximum stimulation
Description: PEPCK gene expression was studied in HEPG2 (hepatocarcinoma) cells, seeded in 6-well plate at […] per well. The cells were serum-starved for 20 hours before treatment with dexamethasone/cAMP (stimulator of PEPCK gene expression) in the presence or absence of insulin or GSK3 inhibitor example compounds. After 3 hours treatment the cells were harvested, lysed and RNA extracted using mini RNeasy spin columns (Quiagen). The primer set COD2063/COD2064 (350 bp) was used for the PEPCK gene. The one step RT-PCR was carried out using the Lightcycler-RNA Master SYBR Green 1 Kit. The qPCR analysis calculates the number of the PCR cycles required for the PCR product amplification to reach logarithmic phase. QPCR for a housekeeping gene—28S—was used for normalisation. PEPCK is a key enzyme in gluconeogenesis in the liver and it is known to be negatively regulated by insulin via inhibition of GSK3. The effect of example compounds on PEPCK gene expression was studied in HEPG2 cells treated with dexamethasone/cAMP (a positive regulator PEPCK gene expression) in the presence or absence of insulin or GSK3 inhibitors. Example compound inhibitors of GSK3 were efficient in the abolishment of dexamethasone/cAMP induced stimulation of PEPCK gene expression in HEPG2 cells.

CDK4/cyclin D1 = CDK4/cyclin D1 (Homo sapiens, UniProt P11802); test: Kinase assay CDK4/cyclin D1; assay type: biochemical; settings: Ki calculated (Cheng-Prusoff) from experimentally determined IC50 and Km,ATP; read-out: Kinase Inhibition Ki CDK4 - cyclin D1
Sequence of CDK4/cyclin D1 (P11802 whole entry, species assumed): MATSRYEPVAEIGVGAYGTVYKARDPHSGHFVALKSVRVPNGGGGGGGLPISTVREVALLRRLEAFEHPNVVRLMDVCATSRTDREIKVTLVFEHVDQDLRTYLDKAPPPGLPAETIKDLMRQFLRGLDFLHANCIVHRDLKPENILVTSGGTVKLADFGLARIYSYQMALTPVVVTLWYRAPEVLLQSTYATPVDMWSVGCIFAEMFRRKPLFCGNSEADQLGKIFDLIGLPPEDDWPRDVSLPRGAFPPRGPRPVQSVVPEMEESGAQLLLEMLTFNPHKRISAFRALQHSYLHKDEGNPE
Sequence of CDK4/cyclin D1 (P24385 whole entry partner, species assumed): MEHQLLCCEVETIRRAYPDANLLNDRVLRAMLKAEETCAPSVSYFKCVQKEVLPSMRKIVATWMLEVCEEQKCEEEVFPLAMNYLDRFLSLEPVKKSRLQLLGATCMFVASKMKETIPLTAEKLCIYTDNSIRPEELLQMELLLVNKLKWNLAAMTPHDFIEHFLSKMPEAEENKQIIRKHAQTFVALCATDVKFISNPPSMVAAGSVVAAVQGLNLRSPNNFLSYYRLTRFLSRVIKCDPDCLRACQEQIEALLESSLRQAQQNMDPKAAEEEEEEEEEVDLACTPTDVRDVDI
In short: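 Radiometric filter assays used recombinant kinases or complexes (2-4 μg) with appropriate polypeptide substrates in pH 7.4 β-glycerophosphate/MOPS buffer. Reactions were started with 15 mM MgCl2 and 100 μM ATP containing [γ-32P]-ATP and run at 30° C. Phosphate incorporated into substrate was counted by scintillation after washing.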

[3] = male ZDF fa/fa rats, 30 mg/kg per os twice, oral glucose tolerance test

Row | EC50 (glycogen synthase; Homo sapiens) [µM] | oral bioavailability (blood levels at 30 and 60 min after the glucose load) [2] | concentration at 30 min ([2]; time 30 min) [µg/mL] | concentration at 60 min ([2]; time 60 min) [µg/mL] | Ki (CDK4/cyclin D1) [µM] | Structure (SMILES) | Max FI (% to LiCl) (glycogen synthase) | % Glucose Decrease AUC (−270–180 min) [1] [%] | % Glucose decrease-AUC (0–180 min) [1] | glucose AUC [1, 3] | Emax (PEPCK gene expression; 0.1 μM + Dex/cAMP) [%] | Emax (PEPCK gene expression; 1 μM + Dex/cAMP) [%] | Emax (PEPCK gene expression; 10 μM + Dex/cAMP) [%] | decreased blood glucose levels [1, 3] | EC50 (glycogen synthase) [µM] | Average Blood levels ([2]; time 30 min) [ng/mL] | Average Blood levels ([2]; time 60 min) [ng/mL]
1 | 0.049 ± 0.07 | some oral bioavailability | 0.248 | 0.268 | – | CC(=O)Nc1cc(Nc2nccc(-c3sc(=O)n(C)c3C)n2)cc(C(F)(F)F)c1 [Compound 64, N-{3-[4-(3,4-Dimethyl-2-oxo-2,3-dihydro-thiazol-5-yl)-pyrimidin-2-ylamino]-5-trifluoromethyl-phenyl}-acetamide] | 107 % to LiCl | 9 | 8% | moderate decrease | 11.4 ± 3.2 | – | – | – | – | – | –
2 | 5.17 ± 2.2 | – | – | – | 0.15 | Cc1c(-c2ccnc(Nc3cccc(S(=O)(=O)NCCO)c3)n2)sc(=O)n1C [Compound 75, 3-[4-(3,4-Dimethyl-2-oxo-2,3-dihydro-thiazol-5-yl)-pyrimidin-2-ylamino]-N-(2-hydroxy-ethyl)-benzenesulfonamide] | 108 % to LiCl | 13 | 6.4% | – | – | 37.2 ± 0.37 | 17.1 ± 0.68 | – | – | – | –
3 | 3.72 ± 2.5 | some oral bioavailability | 0.35 | 0.271 | 1.4 | COCCNS(=O)(=O)c1cccc(Nc2nccc(-c3sc(=O)n(C)c3C)n2)c1 [Compound 67, 3-[4-(3,4-Dimethyl-2-oxo-2,3-dihydro-thiazol-5-yl)-pyrimidin-2-ylamino]-N-(2-methoxy-ethyl)-benzenesulfonamide] | 85 % to LiCl | 14 | 7.5% | moderate decrease | – | 101 ± 38.2 | 17.4 ± 0.97 | – | – | – | –
4 | 0.684 ± 0.133 | – | 0.0276 | 0.0297 | 0.33 | CCNS(=O)(=O)c1cccc(Nc2nccc(-c3sc(=O)n(C)c3C)n2)c1 [Compound 62, 3-[4-(3,4-Dimethyl-2-oxo-2,3-dihydro-thiazol-5-yl)-pyrimidin-2-ylamino]-N-ethyl-benzenesulfonamide] | 117 % to LiCl | 9 | 3.6% | – | – | – | – | – | – | – | –
5 | 8.34 ± 1.88 | some oral bioavailability | 0.115 | 0.0701 | – | Cc1c(-c2ccnc(Nc3cc(Br)cc(C(F)(F)F)c3)n2)sc(=O)n1C [Compound 68, 5-[2-(3-Bromo-5-trifluoromethyl-phenylamino)-pyrimidin-4-yl]-3,4-dimethyl-3H-thiazol-2-one] | 96 % to LiCl | 5 | 8.4* % | moderate decrease | – | – | 60.7 ± 20 | statistically significant | – | – | –
6 | – | – | – | – | – | CNc1cc(Nc2nccc(-c3sc(=O)n(C)c3C)n2)cc(C(F)(F)F)c1 [Compound 76, 3,4-Dimethyl-5-[2-(3-methylamino-5-trifluoromethyl-phenylamino)-pyrimidin-4-yl]-3H-thiazol-2-one] | 88 % to LiCl | 0 | 0.5% | – | – | – | – | – | 0.444 ± 0.178 | 43.0 | 48.1
